Source: BigSolDB 2.1

O=C1CN=C(c2ccccc2Cl)c2cc([N+](=O)[O-])ccc2N1
solubility (mole fraction)
Details | 298.2 K | 303.2 K | 308.2 K | 313.2 K | 318.2 K
in NMP | 0.0132 | 0.0142 | 0.0187 | 0.0207 | 0.0222
in ethanol | 0.000348 | 0.000409 | 0.000533 | 0.00058 | 0.000652
in propylene glycol | 0.000641 | 0.00104 | 0.00108 | 0.00116 | 0.00138
in water | 1.9e-07 | 2.4e-07 | 2.6e-07 | 2.9e-07 | 3.2e-07

Details | solubility (mole fraction)
in PEG-200, 298.2 K | 0.01
in PEG-200, 303.2 K | 0.01
in PEG-200, 308.2 K | 0.0134
in PEG-200, 313.2 K | 0.0168
in PEG-200, 318.2 K | 0.0239
